Measured values reported in article PMC6009894, “Molecular modelling insights into a physiologically favourable approach to eicosanoid biosynthesis inhibition through novel thieno[2,3-b]pyridine derivatives” (Journal of Enzyme Inhibition and Medicinal Chemistry, 2018).
Several values for one entry are separate records, joined by “and”; a condition that tells them apart may be missing. Equal values may be shown once.

Key:
COX-2 (human) = biological target: T1, COX-2 (human) (Homo sapiens, UniProt P35354); experiment: COX-2 (human) Inhibitor Screening Assay Kit (Cayman); type: biochemical; conditions: for selectivity index COX-2/COX-1: towards COX-2 than COX-1
T1 construct: purchased Cayman (Ann Arbor, MI) 701080
T1 sequence (P35354 18-604): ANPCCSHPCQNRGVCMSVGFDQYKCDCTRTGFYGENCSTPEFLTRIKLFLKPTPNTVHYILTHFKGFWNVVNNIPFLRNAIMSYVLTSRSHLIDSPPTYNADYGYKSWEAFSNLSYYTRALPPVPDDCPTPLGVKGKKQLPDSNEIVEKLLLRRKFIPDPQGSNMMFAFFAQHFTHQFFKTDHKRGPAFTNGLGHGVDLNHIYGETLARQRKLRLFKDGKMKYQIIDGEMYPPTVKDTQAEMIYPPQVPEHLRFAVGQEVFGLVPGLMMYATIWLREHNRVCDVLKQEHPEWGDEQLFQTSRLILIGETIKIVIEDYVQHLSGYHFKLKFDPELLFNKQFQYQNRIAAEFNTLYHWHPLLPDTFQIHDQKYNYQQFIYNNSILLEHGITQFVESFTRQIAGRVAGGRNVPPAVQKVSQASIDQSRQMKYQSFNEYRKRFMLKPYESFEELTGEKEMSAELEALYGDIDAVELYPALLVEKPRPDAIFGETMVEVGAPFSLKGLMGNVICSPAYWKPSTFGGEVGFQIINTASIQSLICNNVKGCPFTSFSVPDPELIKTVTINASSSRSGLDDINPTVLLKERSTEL
From the text: (§1) The used protocol was according to the manufacturer protocol guide and instructions using ELISA plate reader.

5-LOX = biological target: T2, 5-LOX (Homo sapiens, UniProt P09917); experiment: 5-LOX Inhibitor Screening Assay Kit (Cayman); type: biochemical; conditions: for 5-LOX IC50 level: in words
T2 sequence (P09917 1-674): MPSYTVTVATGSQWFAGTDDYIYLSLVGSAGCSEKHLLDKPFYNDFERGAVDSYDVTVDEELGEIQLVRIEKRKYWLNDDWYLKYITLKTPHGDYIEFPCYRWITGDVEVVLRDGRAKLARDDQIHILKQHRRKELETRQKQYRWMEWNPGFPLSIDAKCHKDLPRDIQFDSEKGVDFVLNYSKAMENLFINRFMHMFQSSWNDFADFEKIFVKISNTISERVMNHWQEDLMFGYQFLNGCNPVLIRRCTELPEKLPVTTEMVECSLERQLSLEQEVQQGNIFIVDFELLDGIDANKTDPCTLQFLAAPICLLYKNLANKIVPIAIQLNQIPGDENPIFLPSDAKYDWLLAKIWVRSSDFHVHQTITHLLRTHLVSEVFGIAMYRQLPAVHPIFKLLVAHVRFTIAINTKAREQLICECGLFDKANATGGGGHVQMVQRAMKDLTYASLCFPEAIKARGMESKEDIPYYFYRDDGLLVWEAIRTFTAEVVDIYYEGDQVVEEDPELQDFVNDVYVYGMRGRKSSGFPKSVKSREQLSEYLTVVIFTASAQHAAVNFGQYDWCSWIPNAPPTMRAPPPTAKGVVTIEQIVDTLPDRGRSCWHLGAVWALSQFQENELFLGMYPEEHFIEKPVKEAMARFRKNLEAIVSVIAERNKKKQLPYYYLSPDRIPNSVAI
From the text: as §1

[1] = test system: carrageenan-induced rat paw oedema; experiment: carrageenan-induced rat paw oedema assay; type: in vivo, Sprague–Dawley rats; conditions: for Inhibition of acute inflammation % inh / Swel (mean difference in rat paw volume between right and left paw): dose equivalent to 70 mg kg-1 ibuprofen; for Swel (mean difference in rat paw volume between right and left paw): DMSO; for inflammation reduction % (4h): rat paw oedema, 4 h time interval, subcutaneous, equimolar to ibuprofen 70 mg kg-1
Method: According to a priori test results, experiments were conducted on young adult male Sprague–Dawley rats (5 rats per group), weighing 140–170 g. The animals were housed at cages in a temperature controlled (25 ± 1 °C) environment and were fed ad libitum with standard laboratory chow and allowed free access to water. […] The animal protocol is in accordance with the Animal Ethical Care regulations in the Faculty of Pharmacy, Helwan University.
Compounds (equimolar to the reference drug) were dissolved in DMSO and administrated subcutaneously. One hour later, paw oedema was induced by subplantar injection of 0.1 ml of 1% carrageenan (Sigma-Aldrich, St. Louis, MO) into the right hind paw. Paw volume was measured using a water plethysmometer (Basile, Comerio, Italy). The difference between the right and left paw volume was measured at 1, 2, 3, and 4 h after induction of inflammation.
The control group (five rats per group) received DMSO subcutaneously and carrageenan in the subplantar region. Results were expressed as percentage inhibition of inflammation.

COX-1 (human) = biological target: T3, COX-1 (human) (Homo sapiens, UniProt P23219); experiment: COX-1 (human) Inhibitor Screening Assay Kit (Cayman); type: biochemical
T3 construct: purchased Cayman (Ann Arbor, MI) 701070
T3 sequence (P23219 24-599): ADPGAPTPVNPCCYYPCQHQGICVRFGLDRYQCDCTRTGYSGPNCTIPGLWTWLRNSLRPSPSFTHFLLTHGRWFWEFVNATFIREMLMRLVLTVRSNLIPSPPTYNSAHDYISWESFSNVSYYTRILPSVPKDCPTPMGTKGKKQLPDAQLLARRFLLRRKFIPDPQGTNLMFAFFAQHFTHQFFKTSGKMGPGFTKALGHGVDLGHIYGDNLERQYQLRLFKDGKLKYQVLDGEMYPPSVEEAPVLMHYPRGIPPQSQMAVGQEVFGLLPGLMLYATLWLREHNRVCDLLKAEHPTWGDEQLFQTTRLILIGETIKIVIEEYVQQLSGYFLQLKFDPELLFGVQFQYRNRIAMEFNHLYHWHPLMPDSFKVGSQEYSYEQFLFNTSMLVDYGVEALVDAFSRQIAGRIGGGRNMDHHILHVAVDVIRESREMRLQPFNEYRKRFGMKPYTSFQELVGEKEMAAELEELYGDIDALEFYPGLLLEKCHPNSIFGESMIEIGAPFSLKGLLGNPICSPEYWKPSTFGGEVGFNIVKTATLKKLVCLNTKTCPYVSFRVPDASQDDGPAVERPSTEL
From the text: as §1

Cc1cc(C)c2c(N)c(C(=O)NN=Cc3ccccc3)sc2n1 [Compound 7a, 3-Amino-4,6-dimethyl-thieno [2,3-b] pyridine-2-carboxylic acid benzylidene-hyrazide]
IC50 (COX-2 (human)): 9.99 µM | COX-2 inhibition, times higher than 8a (COX-2 (human); compared with 8a): 3.6 times | COX-2 inhibition, times higher than 8c (COX-2 (human); compared with 8c): 1.8 times | selectivity index COX-2/COX-1 (COX-2 (human)): 4.6 | 5-LOX inhibition, times higher than 8a (5-LOX; compared with 8a): 35 times | 5-LOX inhibition, times higher than 8c (5-LOX; compared with 8c): 87 times | 5-LOX IC50 level (5-LOX): nanomolar level | Inhibition of acute inflammation % inh ([1]; 1 h): 37.68% | Swel (mean difference in rat paw volume between right and left paw) ([1]; 1 h after carrageenan): 0.143 | Inhibition of acute inflammation % inh ([1]; 2 h): 42.3% | Swel (mean difference in rat paw volume between right and left paw) ([1]; 2 h after carrageenan): 0.15 | Inhibition of acute inflammation % inh ([1]; 3 h): 71.2% | Swel (mean difference in rat paw volume between right and left paw) ([1]; 3 h after carrageenan): 0.156 | Inhibition of acute inflammation % inh ([1]; 4 h): 73.54% | Swel (mean difference in rat paw volume between right and left paw) ([1]; 4 h after carrageenan): 0.16 | inflammation reduction % (4h) [1]: 73.5% and 73.54% | IC50 (COX-1 (human)): 45.9 µM

Cc1cc(C)c2c(N)c(C(=O)N/N=C/c3ccc(Cl)cc3)sc2n1 [Compound 7b, 3-Amino-4,6-dimethyl-thieno [2,3-b] pyridine-2-carboxylic acid (4-chloro-benzylidene)-hyrazide]
IC50 (COX-2 (human)): 7.5 µM and 7.52 µM | selectivity index COX-2/COX-1 (COX-2 (human)): 4.2 | 5-LOX IC50 level (5-LOX): nanomolar level | melting point: 280 to 282 °C | Inhibition of acute inflammation % inh ([1]; 1 h): 22.1% | Swel (mean difference in rat paw volume between right and left paw) ([1]; 1 h after carrageenan): 0.17 | Inhibition of acute inflammation % inh ([1]; 2 h): 35.62% | Swel (mean difference in rat paw volume between right and left paw) ([1]; 2 h after carrageenan): 0.16 | Inhibition of acute inflammation % inh ([1]; 3 h): 54.75% | Swel (mean difference in rat paw volume between right and left paw) ([1]; 3 h after carrageenan): 0.25 | Inhibition of acute inflammation % inh ([1]; 4 h): 73.02% | Swel (mean difference in rat paw volume between right and left paw) ([1]; 4 h after carrageenan): 0.17 | inflammation reduction % (4h) [1]: 73.02% | IC50 (COX-1 (human)): 31.8 µM

Cc1cc(C)c2c(n1)sc1c(=O)n(/N=C/c3ccc(Cl)cc3)nnc12 [Compound 8b, 7,9-Dimethyl-3-[(4-chloro-phenyl-methylene)amino]pyrido[3ˈ,2ˈ:4,5] thieno [3,2-d][1,2,3]triazin-4(3H)-one]
IC50 (COX-2 (human)): 36 µM | 5-LOX inhibition, times less potent than 7a (5-LOX; compared with 7a): approximately 90 times | 5-LOX IC50 level (5-LOX): micromolar level | melting point: 255 to 257 °C | Inhibition of acute inflammation % inh ([1]; 1 h): 0% | Swel (mean difference in rat paw volume between right and left paw) ([1]; 1 h after carrageenan): 0.23 | Inhibition of acute inflammation % inh ([1]; 2 h): 0% | Swel (mean difference in rat paw volume between right and left paw) ([1]; 2 h after carrageenan): 0.27 | Inhibition of acute inflammation % inh ([1]; 3 h): 56.54% | Swel (mean difference in rat paw volume between right and left paw) ([1]; 3 h after carrageenan): 0.24 | Inhibition of acute inflammation % inh ([1]; 4 h): 78.23% | Swel (mean difference in rat paw volume between right and left paw) ([1]; 4 h after carrageenan): 0.14 | inflammation reduction % (4h) [1]: 78.2% and 78.23% | IC50 (COX-1 (human)): 19.9 µM | affinity towards COX-1 over COX-2 (COX-1 (human)): approximately 2 fold

COc1ccc(/C=N/n2nnc3c(sc4nc(C)cc(C)c43)c2=O)cc1 [Compound 8c, 7,9-Dimethyl-3-[(4-methoxy-phenyl-methylene)amino]pyrido[3ˈ,2ˈ:4,5]thieno [3,2-d][1,2,3]triazin-4(3H)-one]
IC50 (COX-2 (human)): 19 µM | 5-LOX IC50 level (5-LOX): micromolar level | melting point: 240 to 242 °C | Inhibition of acute inflammation % inh ([1]; 1 h): 0% | Swel (mean difference in rat paw volume between right and left paw) ([1]; 1 h after carrageenan): 0.246 | Inhibition of acute inflammation % inh ([1]; 2 h): 34.61% | Swel (mean difference in rat paw volume between right and left paw) ([1]; 2 h after carrageenan): 0.17 | Inhibition of acute inflammation % inh ([1]; 3 h): 41.78% | Swel (mean difference in rat paw volume between right and left paw) ([1]; 3 h after carrageenan): 0.316 | Inhibition of acute inflammation % inh ([1]; 4 h): 79.36% | Swel (mean difference in rat paw volume between right and left paw) ([1]; 4 h after carrageenan): 0.13 | inflammation reduction % (4h) [1]: 79.4% and 79.36% | IC50 (COX-1 (human)): 7.7 µM and 7.66 µM | affinity towards COX-1 over COX-2 (COX-1 (human)): approximately 2 fold
